Test results taken from PubChem BioAssay (NCI).
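Assay format: 96-well plates, 48-hour exposure. GI50 is the concentration that inhibits growth by half. TGI: total growth inhibition.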

Tests used:
Assay in all cases: DTP human tumour cell line panel, 48 h
ACHN renal = tested on: ACHN renal
HCT-15 colon = tested on: HCT-15 colon
K-562 leukemia = tested on: K-562 leukemia
MDA-MB-231 breast = tested on: MDA-MB-231 breast
OVCAR-5 ovarian = tested on: OVCAR-5 ovarian
RPMI-8226 leukemia = tested on: RPMI-8226 leukemia
SF-295 CNS = tested on: SF-295 CNS
SK-OV-3 ovarian = tested on: SK-OV-3 ovarian
SW-620 colon = tested on: SW-620 colon
U251 CNS = tested on: U251 CNS

Row | SMILES | GI50 (ACHN renal) | TGI (ACHN renal) | GI50 (HCT-15 colon) | TGI (HCT-15 colon) | GI50 (K-562 leukemia) | TGI (K-562 leukemia) | GI50 (MDA-MB-231 breast) | TGI (MDA-MB-231 breast) | GI50 (OVCAR-5 ovarian) | TGI (OVCAR-5 ovarian) | GI50 (RPMI-8226 leukemia) | TGI (RPMI-8226 leukemia) | GI50 (SF-295 CNS) | TGI (SF-295 CNS) | GI50 (SK-OV-3 ovarian) | TGI (SK-OV-3 ovarian) | GI50 (SW-620 colon) | TGI (SW-620 colon) | GI50 (U251 CNS) | TGI (U251 CNS)
1 | CCCOc1cc2ccccc2cc1C(=O)Nc1nc(N)c2c(ccc3nccc32)[nH]1 | 0.0641 µM | 2.56 µM | 0.0444 µM | 1.31 µM | 0.0339 µM | 1.26 µM | 1.06 µM | 2.85 µM | 0.911 µM | 2.98 µM | 0.113 µM | 2.15 µM | 0.0307 µM | 1.26 µM | 0.0591 µM | 2.36 µM | 0.0377 µM | 1.8 µM | 0.0527 µM | 1.4 µM
2 | Cn1ccc2c3c(Oc4ccc(NC(N)=O)cc4)ccnc3ccc21 | > 100 µM | > 100 µM | > 100 µM | > 100 µM | > 100 µM | > 100 µM | > 100 µM | > 100 µM | > 100 µM | > 100 µM | > 100 µM | > 100 µM | > 100 µM | > 100 µM | > 100 µM | > 100 µM | > 100 µM | > 100 µM | > 100 µM | > 100 µM
3 | Nc1c(C(=O)Nc2cccc(C(F)(F)F)c2)sc2nc3c(cc12)CCCCC3 | 1.56 µM | 3.73 µM | 10.7 µM | > 100 µM | 5.42 µM | 29.7 µM | 4.4 µM | 22.7 µM | 3.43 µM | 17.3 µM | 4.32 µM | 35.5 µM | 2.2 µM | 12.2 µM | 1.85 µM | 4.36 µM | 6.42 µM | > 100 µM | 2.2 µM | 7.98 µM
4 | CCOC(=O)C1=C(C)N(c2ccc(F)cc2F)[C@]2(C#N)C(O)=C(Cl)C(Cl)=C(O)[C@]12C#N | > 100 µM | > 100 µM | > 100 µM | > 100 µM | 88 µM | > 100 µM | > 100 µM | > 100 µM | 20.5 µM | > 100 µM | 27.1 µM | > 100 µM | > 100 µM | > 100 µM | > 100 µM | > 100 µM | > 100 µM | > 100 µM | > 100 µM | > 100 µM
5 | COc1ccc2nc3cc(Cl)ccc3c(NCCNCC(C)O)c2c1 (stereo not given) | 1.43 µM | 7.22 µM | 1.21 µM | 4.36 µM | 1.28 µM | 10 µM | 1.49 µM | 4.28 µM | 1.67 µM | 6.3 µM | 2.54 µM | 6.36 µM | 1.68 µM | 6.71 µM | 2.58 µM | 9.75 µM | 0.818 µM | 10.3 µM | 1.99 µM | 4.62 µM
6 | Nc1n[nH]c2cccc(C#Cc3cccc(C(=O)Nc4ccc(CN5CCOCC5)c(C(F)(F)F)c4)c3)c12 | 2.63 µM | 9.96 µM | 2.56 µM | 9.32 µM | 0.0233 µM | > 100 µM | 1.3 µM | 4.7 µM | 2.52 µM | 19.8 µM | 1.76 µM | 5.62 µM | 2.03 µM | 6.1 µM | 4 µM | 17.5 µM | 2.89 µM | 12.7 µM | 2.75 µM | 15.2 µM
7 | COc1ccc(CCN=C2NC(=O)/C(=C/c3ccc4ncccc4c3)S2)cc1 | > 25 µM | > 25 µM | > 25 µM | > 25 µM | > 25 µM | > 25 µM | > 25 µM | > 25 µM | > 25 µM | > 25 µM | > 25 µM | > 25 µM | > 25 µM | > 25 µM | > 25 µM | > 25 µM | > 25 µM | > 25 µM | > 25 µM | > 25 µM
8 | O=S(=O)(c1ccccc1)N1CCN(S(=O)(=O)c2ccccc2)c2ccccc21 | – | > 100 µM | – | > 100 µM | – | > 100 µM | – | > 100 µM | – | > 100 µM | – | > 100 µM | – | > 100 µM | – | > 100 µM | – | > 100 µM | – | > 100 µM
9 | CC(C)[C@@H]1C=C2CC[C@H]3[C@](C)(CN)CCC[C@]3(C)[C@H]2CC1 | 5.67 µM | 18.5 µM | 2.08 µM | 4.94 µM | 1.96 µM | 4.36 µM | 2.12 µM | 5.47 µM | 2.22 µM | 5.38 µM | 2.57 µM | 11.7 µM | 1.9 µM | 4.29 µM | 13.2 µM | 26 µM | 1.73 µM | 3.23 µM | 1.76 µM | 3.28 µM
10 | Nc1cc(NN=C(c2ccc(O)cc2)c2ccc(O)cc2)c([N+](=O)[O-])cc1[N+](=O)[O-] | 1.86 µM | 5.55 µM | 1.78 µM | 4.13 µM | 3.62 µM | 31.7 µM | 2.22 µM | 5.38 µM | 2.85 µM | 8.44 µM | 2.15 µM | 6.46 µM | 1.4 µM | 2.91 µM | 2.35 µM | 6.4 µM | 1.58 µM | 2.93 µM | 1.93 µM | 4.15 µM
11 | Nc1n[nH]c2cc(F)c([C@@H]3Nc4ccc5[nH]ncc5c4[C@H]4C5CCC(C5)[C@@H]34)cc12 (stereo not given in full) | 0.231 µM | 26.1 µM | 0.159 µM | 9.04 µM | 0.103 µM | > 50 µM | 0.2 µM | 7.86 µM | 0.326 µM | 24.4 µM | 0.173 µM | 1.82 µM | 0.12 µM | 6.03 µM | 0.359 µM | > 32.1 µM | 0.188 µM | > 25 µM | 0.189 µM | 9.3 µM
12 | COc1ccc(/C=N/NC(=O)c2cccc3cc[nH]c23)cc1O | 4.19 µM | > 100 µM | 0.615 µM | > 46.1 µM | 2.17 µM | > 100 µM | 0.685 µM | > 35 µM | > 54.6 µM | > 100 µM | 3.38 µM | 24.8 µM | 0.736 µM | > 24.8 µM | 9.87 µM | > 100 µM | 0.65 µM | > 100 µM | 2.4 µM | > 100 µM
